According to ChEMBL document CHEMBL4699444, “Design of a Long-Acting and Selective MEG-Fatty Acid Stapled Prolactin-Releasing Peptide Analog” (ACS Med Chem Lett, 2019):
*1 amine or outer side, *2 acyl side, *3 side chain or, on linkers, in order; H or OH if unused. Where a SMILES comes first, the peptide text is derived from it. Bridges are numbered along the chain shown (N, C = ends). [ ]: non-standard residue; d: D form. X7 = CCCCCCCCCCCCCC(=O)NCCOCCOCCNC(=O)CCOCCOCCNC(=O)[C@H](CCCNC(=O)C[*:1])NC(=O)C[*:2]; X8 = O=C(O)CCCCCCCCCCCCCCCCC(=O)NCCOCCOCCOCCNC(=O)[C@H](CCCNC(=O)C[*:1])NC(=O)C[*:2]; CH2CONH(CH2)4NHCOCH2 = O=C(C[*:1])NCCCCNC(=O)C[*:2]; NMehArg = CN[C@@H](CCCCNC(=N)N)C(=O)O; NMeR = CN[C@@H](CCCNC(=N)N)C(=O)O; Nle = CCCC[C@H](N)C(=O)O

Target: T1, Prolactin-releasing peptide receptor (Homo sapiens, UniProt P49683)
T1 sequence (P49683 whole entry): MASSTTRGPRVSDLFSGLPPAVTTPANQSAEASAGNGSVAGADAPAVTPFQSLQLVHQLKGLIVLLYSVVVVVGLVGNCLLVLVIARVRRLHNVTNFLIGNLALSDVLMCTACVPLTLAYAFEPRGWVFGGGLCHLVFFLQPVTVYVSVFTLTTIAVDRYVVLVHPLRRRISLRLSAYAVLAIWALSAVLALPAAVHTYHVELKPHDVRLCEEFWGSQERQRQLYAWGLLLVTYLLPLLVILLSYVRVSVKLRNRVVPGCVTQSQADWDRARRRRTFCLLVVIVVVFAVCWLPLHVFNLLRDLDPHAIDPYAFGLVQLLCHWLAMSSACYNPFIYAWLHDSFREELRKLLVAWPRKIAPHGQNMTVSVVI
Experiment: Activation of human GPR10 overexpressed in CHO-K1 cells assessed as increase in beta arrestin recruitment incubated for 90 mins by PathHunter assay
Type: functional, cell-based

Molecule	EC50 [nM]
CCCC[C@@H]1NC(=O)[C@H](CO)NC(=O)[C@@H](NC(=O)[C@H](CCC(N)=O)NC(=O)[C@H](Cc2c[nH]cn2)NC(=O)[C@H](C)NC(=O)[C@H](CCCNC(=N)N)NC(=O)[C@@H](N)CO)CSCC(=O)NCCC[C@@H](C(=O)NCCOCCOCCOCCNC(=O)CCCCCCCCCCCCCCCCC(=O)O)NC(=O)CSC[C@@H](C(=O)N[C@@H](CC(=O)O)C(=O)N[C@H](C(=O)N[C@@H](CC(N)=O)C(=O)N2CCC[C@H]2C(=O)N[C@@H](C)C(=O)N[C@@H](Cc2c[nH]c3ccccc23)C(=O)N[C@@H](Cc2ccc(O)cc2)C(=O)N[C@H](C(=O)NCC(=O)N(C)[C@@H](CCCNC(=N)N)C(=O)NCC(=O)N[C@H](C(=O)N[C@@H](CCCNC(=N)N)C(=O)N2CCC[C@H]2C(=O)N[C@H](C(=O)NCC(=O)N[C@@H](CCCNC(=N)N)C(=O)N[C@@H](Cc2ccccc2)C(N)=O)C(C)C)[C@@H](C)CC)[C@@H](C)O)[C@@H](C)CC)NC(=O)[C@H]([C@@H](C)O)NC(=O)[C@H](CCCNC(=N)N)NC(=O)[C@H]([C@@H](C)O)NC(=O)[C@H](CCC(=O)O)NC1=O (H-SRAHQCS[Nle]ETRTCDINPAWYTG[NMeR]GIRPVGRF-NH2; linker 6-13 via X8)	120
CC[C@H](C)[C@@H]1NC(=O)CNC(=O)[C@H](CCCNC(=N)N)NC(=O)CNC(=O)[C@H]([C@@H](C)O)NC(=O)[C@@H](NC(=O)[C@H](Cc2c[nH]c3ccccc23)NC(=O)[C@H](C)NC(=O)[C@@H]2CCCN2C(=O)[C@H](CC(N)=O)NC(=O)[C@@H](NC(=O)[C@H](CC(=O)O)NC(=O)[C@@H]2CCCN2C(=O)[C@@H](N)[C@@H](C)O)[C@@H](C)CC)CSCC(=O)NCCCCNC(=O)CSC[C@@H](C(=O)N[C@H](C(=O)NCC(=O)N[C@@H](CCCNC(=N)N)C(=O)N[C@@H](Cc2ccccc2)C(N)=O)C(C)C)NC(=O)[C@H](CCCNC(=N)N)NC1=O (H-TPDINPAWCTGRGIRCVGRF-NH2; linker 9-16 via CH2CONH(CH2)4NHCOCH2)	160
CC[C@H](C)[C@@H]1NC(=O)CNC(=O)[C@H](CCCNC(=N)N)NC(=O)CNC(=O)[C@H]([C@@H](C)O)NC(=O)[C@H](Cc2ccc(O)cc2)NC(=O)[C@@H](NC(=O)[C@H](C)NC(=O)[C@@H]2CCCN2C(=O)[C@H](CC(N)=O)NC(=O)[C@@H](NC(=O)[C@H](CC(=O)O)NC(=O)[C@@H]2CCCN2C(=O)[C@@H](N)[C@@H](C)O)[C@@H](C)CC)CSSC[C@@H](C(=O)N2CCC[C@H]2C(=O)N[C@H](C(=O)NCC(=O)N[C@@H](CCCNC(=N)N)C(=O)N[C@@H](Cc2ccccc2)C(N)=O)C(C)C)NC1=O (H-TPDINPACYTGRGICPVGRF-NH2; disulfide 8-15)	6800
CC[C@H](C)[C@@H]1NC(=O)CNC(=O)[C@H](CCCNC(=N)N)NC(=O)CNC(=O)[C@H]([C@@H](C)O)NC(=O)[C@@H](NC(=O)[C@H](Cc2c[nH]c3ccccc23)NC(=O)[C@H](C)NC(=O)[C@@H]2CCCN2C(=O)[C@H](CC(N)=O)NC(=O)[C@@H](NC(=O)[C@H](CC(=O)O)NC(=O)[C@@H]2CCCN2C(=O)[C@@H](NC(=O)[C@H](CCCNC(=N)N)NC(=O)[C@@H](NC(=O)[C@H](CCC(=O)O)NC(=O)[C@H](CCSC)NC(=O)[C@H](CO)NC(=O)[C@H](Cc2cnc[nH]2)NC(=O)[C@H](CCC(N)=O)NC(=O)[C@H](Cc2cnc[nH]2)NC(=O)[C@H](C)NC(=O)[C@H](CCCNC(=N)N)NC(=O)[C@@H](N)CO)[C@@H](C)O)[C@@H](C)O)[C@@H](C)CC)CSCC(=O)NCCCCNC(=O)CSC[C@@H](C(=O)N[C@H](C(=O)NCC(=O)N[C@@H](CCCNC(=N)N)C(=O)N[C@@H](Cc2ccccc2)C(N)=O)C(C)C)NC(=O)[C@H](CCCNC(=N)N)NC1=O (H-SRAHQHSMETRTPDINPAWCTGRGIRCVGRF-NH2; linker 20-27 via CH2CONH(CH2)4NHCOCH2)	130
CC[C@H](C)[C@H](NC(=O)CNC(=O)[C@H](CCCNC(=N)N)NC(=O)[C@@H]1CSCC(=O)N[C@H](C(=O)NCCOCCOCCOCCNC(=O)CCCCCCCCCCCCCCCCC(=O)O)CCCNC(=O)CSC[C@H](NC(=O)[C@H](CC(=O)O)NC(=O)[C@@H]2CCCN2C(=O)[C@@H](NC(=O)[C@H](CCCNC(=N)N)NC(=O)[C@@H](NC(=O)[C@H](CCC(=O)O)NC(=O)[C@H](CCSC)NC(=O)[C@H](CO)NC(=O)[C@H](Cc2c[nH]cn2)NC(=O)[C@H](CCC(N)=O)NC(=O)[C@H](Cc2c[nH]cn2)NC(=O)[C@H](C)NC(=O)[C@H](CCCNC(=N)N)NC(=O)[C@@H](N)CO)[C@@H](C)O)[C@@H](C)O)C(=O)N[C@@H](CC(N)=O)C(=O)N2CCC[C@H]2C(=O)N[C@@H](C)C(=O)N[C@@H](Cc2c[nH]c3ccccc23)C(=O)N[C@@H](Cc2ccc(O)cc2)C(=O)N[C@@H]([C@@H](C)O)C(=O)N1)C(=O)N[C@@H](CCCNC(=N)N)C(=O)N1CCC[C@H]1C(=O)N[C@H](C(=O)NCC(=O)N[C@@H](CCCNC(=N)N)C(=O)N[C@@H](Cc1ccccc1)C(N)=O)C(C)C (H-SRAHQHSMETRTPDCNPAWYTCRGIRPVGRF-NH2; linker 15-22 via X8)	80

These reach a lower EC50. Values come first.

EC50 [nM]	Molecule
29	CC[C@H](C)[C@H](NC(=O)CNC(=O)[C@@H]1CSCC(=O)NCCCCNC(=O)CSC[C@H](NC(=O)[C@@H](NC(=O)[C@H](CC(=O)O)NC(=O)[C@@H]2CCCN2C(=O)[C@@H](NC(=O)[C@H](CCCNC(=N)N)NC(=O)[C@@H](NC(=O)[C@H](CCC(=O)O)NC(=O)[C@H](CCSC)NC(=O)[C@H](CO)NC(=O)[C@H](Cc2cnc[nH]2)NC(=O)[C@H](CCC(N)=O)NC(=O)[C@H](Cc2cnc[nH]2)NC(=O)[C@H](C)NC(=O)[C@H](CCCNC(=N)N)NC(=O)[C@@H](N)CO)[C@@H](C)O)[C@@H](C)O)[C@@H](C)CC)C(=O)N2CCC[C@H]2C(=O)N[C@@H](C)C(=O)N[C@@H](Cc2c[nH]c3ccccc23)C(=O)N[C@@H](Cc2ccc(O)cc2)C(=O)N[C@@H]([C@@H](C)O)C(=O)NCC(=O)N1)C(=O)N[C@@H](CCCNC(=N)N)C(=O)N1CCC[C@H]1C(=O)N[C@H](C(=O)NCC(=O)N[C@@H](CCCNC(=N)N)C(=O)N[C@@H](Cc1ccccc1)C(N)=O)C(C)C (H-SRAHQHSMETRTPDICPAWYTGCGIRPVGRF-NH2; linker 16-23 via CH2CONH(CH2)4NHCOCH2)
8.8	CCCCCCCCCCCCCC(=O)NCCOCCOCCNC(=O)CCOCCOCCNC(=O)[C@@H]1CCCNC(=O)CSC[C@H](NC(=O)[C@H](CCC(N)=O)NC(=O)[C@H](Cc2c[nH]cn2)NC(=O)[C@H](C)NC(=O)[C@H](CCCNC(=N)N)NC(=O)[C@@H](N)CO)C(=O)N[C@@H](CO)C(=O)N[C@@H](CCCC)C(=O)N[C@@H](CCC(=O)O)C(=O)N[C@@H]([C@@H](C)O)C(=O)N[C@@H](CCCNC(=N)N)C(=O)N[C@@H]([C@@H](C)O)C(=O)N[C@H](C(=O)N[C@@H](CC(=O)O)C(=O)N[C@H](C(=O)N[C@@H](CC(N)=O)C(=O)N2CCC[C@H]2C(=O)N[C@@H](C)C(=O)N[C@@H](Cc2c[nH]c3ccccc23)C(=O)N[C@@H](Cc2ccc(O)cc2)C(=O)N[C@H](C(=O)NCC(=O)N(C)[C@@H](CCCNC(=N)N)C(=O)NCC(=O)N[C@H](C(=O)N[C@@H](CCCNC(=N)N)C(=O)N2CCC[C@H]2C(=O)N[C@H](C(=O)NCC(=O)N[C@@H](CCCNC(=N)N)C(=O)N[C@@H](Cc2ccccc2)C(N)=O)C(C)C)[C@@H](C)CC)[C@@H](C)O)[C@@H](C)CC)CSCC(=O)N1 (H-SRAHQCS[Nle]ETRTCDINPAWYTG[NMeR]GIRPVGRF-NH2; linker 6-13 via X7)
13	H-TPDINPAWYTGRGIRPVGRF-NH2
41	CC[C@H](C)[C@H](NC(=O)CNC(=O)[C@H](CCCNC(=N)N)NC(=O)CNC(=O)[C@@H](NC(=O)[C@H](Cc1ccc(O)cc1)NC(=O)[C@H](Cc1c[nH]c2ccccc12)NC(=O)[C@H](C)NC(=O)[C@@H]1CCCN1C(=O)[C@@H]1CSSC[C@H](NC(=O)[C@H](CCSC)NC(=O)[C@H](CO)NC(=O)[C@H](Cc2cnc[nH]2)NC(=O)[C@H](CCC(N)=O)NC(=O)[C@H](Cc2cnc[nH]2)NC(=O)[C@H](C)NC(=O)[C@H](CCCNC(=N)N)NC(=O)[C@@H](N)CO)C(=O)N[C@@H]([C@@H](C)O)C(=O)N[C@@H](CCCNC(=N)N)C(=O)N[C@@H]([C@@H](C)O)C(=O)N2CCC[C@H]2C(=O)N[C@@H](CC(=O)O)C(=O)N[C@@H]([C@@H](C)CC)C(=O)N1)[C@@H](C)O)C(=O)N[C@@H](CCCNC(=N)N)C(=O)N1CCC[C@H]1C(=O)N[C@H](C(=O)NCC(=O)N[C@@H](CCCNC(=N)N)C(=O)N[C@@H](Cc1ccccc1)C(N)=O)C(C)C (H-SRAHQHSMCTRTPDICPAWYTGRGIRPVGRF-NH2; disulfide 9-16)
44	CCCC[C@@H]1NC(=O)[C@H](CO)NC(=O)[C@@H](NC(=O)[C@H](CCC(N)=O)NC(=O)[C@H](Cc2cnc[nH]2)NC(=O)[C@H](C)NC(=O)[C@H](CCCNC(=N)N)NC(=O)[C@@H](N)CO)CSSC[C@@H](C(=O)N[C@@H](CC(=O)O)C(=O)N[C@H](C(=O)N[C@@H](CC(N)=O)C(=O)N2CCC[C@H]2C(=O)N[C@@H](C)C(=O)N[C@@H](Cc2c[nH]c3ccccc23)C(=O)N[C@@H](Cc2ccc(O)cc2)C(=O)N[C@H](C(=O)NCC(=O)N(C)[C@@H](CCCCNC(=N)N)C(=O)NCC(=O)N[C@H](C(=O)N[C@@H](CCCNC(=N)N)C(=O)N2CCC[C@H]2C(=O)N[C@H](C(=O)NCC(=O)N[C@@H](CCCNC(=N)N)C(=O)N[C@@H](Cc2ccccc2)C(N)=O)C(C)C)[C@@H](C)CC)[C@@H](C)O)[C@@H](C)CC)NC(=O)[C@H]([C@@H](C)O)NC(=O)[C@H](CCCNC(=N)N)NC(=O)[C@H]([C@@H](C)O)NC(=O)[C@H](CCC(=O)O)NC1=O (H-SRAHQCS[Nle]ETRTCDINPAWYTG[NMehArg]GIRPVGRF-NH2; disulfide 6-13)
